Like-named read-outs stand apart in the source and are kept apart here.
Legend:
Assay type in all cases: cell-based
Panc2.03 = assay: Proliferation assay (CellTiter Glo), Panc2.03; conditions: for Top inhibition %: 96 hours
Description: (§1) Briefly, cells at a density of 1,000-10,000 cells/well were seeded in 96-well plates and incubated at 37′C for 24 hours. A series of 9 different concentrations of compound stocks (500×) were created by 3-fold serial dilution in DMSO. These compounds were further diluted in culture media and then added to cells so that the final DMSO concentration was 0.2%. After 96 hours of incubation, 50 μL of CellTiter Glo reagent (Promega) was added to each well and luminescence was measured after 10 minutes using EnVision (PerkinElmer). […] The dose range for most compounds was 4.6 nM-30 μM. The dose ranges for some compounds were adjusted downward to 0.46 nM-3 μM or 0.08 nM-0.5 μM or 0.03 nM-0.2 μM. Luminescence from cells treated with […] alone was set as Max and % of inhibition was calculated as follows: Inhibition %=(Max-Sample value)/Max*100. Data was analyzed using XL-fit software (ID Business Solutions Ltd.) and EC50, relative EC50, and % of top inhibition were calculated. The results are shown in Tables 3-6 for pancreatic cancer, lung cancer, colon/gastric cancer, and leukemia cell lines.

HT29 = assay: Proliferation assay (CellTiter Glo), HT29; conditions: HT29 (WT K-ras)
Description: as §1, with “calculated.” for “calculated. The results are shown in Tables 3-6 for pancreatic cancer, lung cancer, colon/gastric cancer, and leukemia cell lines.”
(§2) Other cancer cell lines having wild-type K-ras status and K-ras mutation at G12 were also screened using the PKC activator compounds. […] K-104 was tested in a range of 0.03 nM-0.2 μM. […] The dose ranges were adjusted downward to 0.46 nM-3 μM for K-102 and 0.08 nM-0.5 μM for K-103 for some cell lines.

RPMI8226 = assay: Proliferation assay (CellTiter Glo), RPMI8226; conditions: RPMI8226 (K-ras: G12A)
Description: as §1, with “calculated.” for “calculated. The results are shown in Tables 3-6 for pancreatic cancer, lung cancer, colon/gastric cancer, and leukemia cell lines.”
as §2

SW900 = assay: Proliferation assay (CellTiter Glo), SW900; conditions: SW900 (K-ras: G12V)
Description: as §1, with “calculated.” for “calculated. The results are shown in Tables 3-6 for pancreatic cancer, lung cancer, colon/gastric cancer, and leukemia cell lines.”
as §2

H1915 = assay: Proliferation assay (CellTiter Glo), H1915; conditions: H1915 (WT K-ras)
Description: as §1, with “calculated.” for “calculated. The results are shown in Tables 3-6 for pancreatic cancer, lung cancer, colon/gastric cancer, and leukemia cell lines.”
as §2

Colo205 = assay: Proliferation assay (CellTiter Glo), Colo205; conditions: Colo205 (WT K-ras)
Description: as §1, with “calculated.” for “calculated. The results are shown in Tables 3-6 for pancreatic cancer, lung cancer, colon/gastric cancer, and leukemia cell lines.”
as §2

AsPC-1 = assay: Proliferation assay (CellTiter Glo), AsPC-1
Description: as §1

BxPC-3 = assay: Proliferation assay (CellTiter Glo), BxPC-3; conditions: BxPC-3 (WT K-ras)
Description: as §1, with “calculated.” for “calculated. The results are shown in Tables 3-6 for pancreatic cancer, lung cancer, colon/gastric cancer, and leukemia cell lines.”
as §2

Panc2.13 = assay: Proliferation assay (CellTiter Glo), Panc2.13
Description: as §1

H838 = assay: Proliferation assay (CellTiter Glo), H838; conditions: H838 (WT K-ras)
Description: as §1, with “calculated.” for “calculated. The results are shown in Tables 3-6 for pancreatic cancer, lung cancer, colon/gastric cancer, and leukemia cell lines.”
as §2

CCRF-CEM = assay: Proliferation assay (CellTiter Glo), CCRF-CEM
Description: as §1

[1] = tested on: K-Ras mutant pancreatic, lung, and colon cancer cell lines, leukemia cell lines; assay: Proliferation assays, panel of cancer cell lines (summary statements)
Description: as §1

LS180 = assay: Proliferation assay (CellTiter Glo), LS180
Description: as §1

HL60 = assay: Proliferation assay (CellTiter Glo), HL60
Description: as §1

HCT116 = assay: Proliferation assay (CellTiter Glo), HCT116
Description: as §1

Capan-1 = assay: Proliferation assay (CellTiter Glo), Capan-1
Description: as §1

SW620 = assay: Proliferation assay (CellTiter Glo), SW620
Description: as §1

THP1 = assay: Proliferation assay (CellTiter Glo), THP1
Description: as §1

A549 = assay: Proliferation assay (CellTiter Glo), A549
Description: as §1

KP-4 = assay: Proliferation assay (CellTiter Glo), KP-4
Description: as §1

MiaPaCa-2 = assay: Proliferation assay (CellTiter Glo), MiaPaCa-2
Description: as §1, with “calculated.” for “calculated. The results are shown in Tables 3-6 for pancreatic cancer, lung cancer, colon/gastric cancer, and leukemia cell lines.”

H441 = assay: Proliferation assay (CellTiter Glo), H441
Description: as §1

H727 = assay: Proliferation assay (CellTiter Glo), H727
Description: as §1

H358 = assay: Proliferation assay (CellTiter Glo), H358
Description: as §1

AGS = assay: Proliferation assay (CellTiter Glo), AGS
Description: as §1

[2] = absolute EC50, 96 hours, read-out: Ab EC50
[3] = relative EC50, 96 hours, read-out: Re EC50

CC(=O)O[C@@]12C[C@@H](C)[C@]3(O)C4C=C(C)C(=O)[C@@]4(O)CC(COC(=O)CC(N)C(=O)[O-])=C[C@H]3[C@@H]1C2(C)C.[Na+] (some centres unmarked) [Compound K-101I]
Top inhibition % (Panc2.03): 26.3%
EC50 (Panc2.03; [2]): > 30 µM
EC50 (Panc2.03; [3]): 6.04 µM
Top inhibition % (HT29): 11.8%
Top inhibition % (RPMI8226): 17.60%
Top inhibition % (SW900): 10.8%
Top inhibition % (H1915): 16.4%
Top inhibition % (Colo205): 82.2%
Top inhibition % (AsPC-1; 96 hours): 25.0%
EC50 (AsPC-1; [2]): > 30 µM
EC50 (AsPC-1; [3]): 6.64 µM
Top inhibition % (BxPC-3): 38.12%
Top inhibition % (Panc2.13; 96 hours): 48.3%
EC50 (Panc2.13; [2]): > 30000 nM
EC50 (Panc2.13; [3]): 160 nM
Top inhibition % (H838): 29.3%
Top inhibition % (CCRF-CEM; 96 hours): 37.4%
EC50 (CCRF-CEM; [2]): > 30000 nM
EC50 (CCRF-CEM; [3]): 1510 nM

CCC/C=C/C=C/C(=O)O[C@H]1/C(=C/C(=O)OC)C[C@H]2C[C@H]([C@@H](C)O)OC(=O)C[C@H](O)C[C@@H]3C[C@H](OC(C)=O)C(C)(C)[C@](O)(C[C@@H]4C/C(=C/C(=O)OC)C[C@H](/C=C/C(C)(C)[C@]1(O)O2)O4)O3 [Compound K-104, Bryostatin 1]
potency in proliferation inhibition relative to prostratin [1]: less potent in proliferation inhibition
activity in cancer cell lines ([1]; cell lines with wild-type K-ras and K-ras G12 mutations (Table 7)): much lower activity

CC(=O)O[C@H]1C(=O)[C@@]2(C)[C@H]([C@H](OC(=O)c3ccccc3)[C@]3(O)C[C@H](OC(=O)[C@H](O)[C@@H](NC(=O)c4ccccc4)c4ccccc4)C(C)=C1C3(C)C)[C@]1(OC(C)=O)CO[C@@H]1C[C@@H]2O [Paclitaxel, reference compound]
Top inhibition % (Panc2.03): 64.6%

CC(=O)O[C@@]12C[C@@H](C)[C@]3(O)C4C=C(C)C(O)[C@@]4(O)CC(CO)=C[C@H]3[C@@H]1C2(C)C (some centres unmarked) [Compound K-101C]
Top inhibition % (LS180; 96 hours): 6.8%
EC50 (LS180; [2]): > 30 µM
Top inhibition % (HL60; 96 hours): 63.9%
EC50 (HL60; [2]): 17 µM
EC50 (HL60; [3]): 13 µM
Top inhibition % (HCT116; 96 hours): 12.2%
EC50 (HCT116; [2]): > 30 µM
Top inhibition % (Capan-1; 96 hours): 35.7%
EC50 (Capan-1; [2]): > 30 µM
EC50 (Capan-1; [3]): 5.4 µM
Top inhibition % (SW620; 96 hours): 0.0%
EC50 (SW620; [2]): > 30 µM
Top inhibition % (HT29): 4.8%
Top inhibition % (THP1; 96 hours): 51.4%
EC50 (THP1; [2]): 16 µM
EC50 (THP1; [3]): 8.11 µM
Top inhibition % (A549; 96 hours): 70.3%
EC50 (A549; [2]): 13 µM
EC50 (A549; [3]): 6.68 µM
Top inhibition % (KP-4; 96 hours): 70.4%
EC50 (KP-4; [2]): 11 µM
EC50 (KP-4; [3]): 6.77 µM
Top inhibition % (RPMI8226): 22.72%
Top inhibition % (MiaPaCa-2; 96 hours): 40.1%
EC50 (MiaPaCa-2; [2]): > 30 µM
EC50 (MiaPaCa-2; [3]): 4.37 µM
Top inhibition % (SW900): 10.9%
Top inhibition % (H441; 96 hours): 37.0%
EC50 (H441; [2]): > 30 µM
EC50 (H441; [3]): 7.44 µM
Top inhibition % (H1915): 28.9%
Top inhibition % (H727; 96 hours): 42.8%
EC50 (H727; [2]): > 30 µM
EC50 (H727; [3]): 3.61 µM
Top inhibition % (Colo205): 73.2%
Top inhibition % (H358; 96 hours): 44.0%
EC50 (H358; [2]): > 30 µM
EC50 (H358; [3]): 4.98 µM
Top inhibition % (BxPC-3): 36.67%
Top inhibition % (AGS; 96 hours): 25.3%
EC50 (AGS; [2]): > 30 µM
EC50 (AGS; [3]): 11 µM
Top inhibition % (H838): 20.2%

Reference: patent US12502369B2, “Methods of cancer treatment” (K-GEN, INC., priority 2015, dated 2025)
